From ChEMBL document CHEMBL4387706, “Discovery of Novel Spiroindoline Derivatives as Selective Tankyrase Inhibitors” (J Med Chem, 2019)

Experiments:
[1] = target: T1, Tankyrase 1/2 (Homo sapiens, UniProt Q9H2K2+O95271)
T1 sequence (Q9H2K2 whole entry): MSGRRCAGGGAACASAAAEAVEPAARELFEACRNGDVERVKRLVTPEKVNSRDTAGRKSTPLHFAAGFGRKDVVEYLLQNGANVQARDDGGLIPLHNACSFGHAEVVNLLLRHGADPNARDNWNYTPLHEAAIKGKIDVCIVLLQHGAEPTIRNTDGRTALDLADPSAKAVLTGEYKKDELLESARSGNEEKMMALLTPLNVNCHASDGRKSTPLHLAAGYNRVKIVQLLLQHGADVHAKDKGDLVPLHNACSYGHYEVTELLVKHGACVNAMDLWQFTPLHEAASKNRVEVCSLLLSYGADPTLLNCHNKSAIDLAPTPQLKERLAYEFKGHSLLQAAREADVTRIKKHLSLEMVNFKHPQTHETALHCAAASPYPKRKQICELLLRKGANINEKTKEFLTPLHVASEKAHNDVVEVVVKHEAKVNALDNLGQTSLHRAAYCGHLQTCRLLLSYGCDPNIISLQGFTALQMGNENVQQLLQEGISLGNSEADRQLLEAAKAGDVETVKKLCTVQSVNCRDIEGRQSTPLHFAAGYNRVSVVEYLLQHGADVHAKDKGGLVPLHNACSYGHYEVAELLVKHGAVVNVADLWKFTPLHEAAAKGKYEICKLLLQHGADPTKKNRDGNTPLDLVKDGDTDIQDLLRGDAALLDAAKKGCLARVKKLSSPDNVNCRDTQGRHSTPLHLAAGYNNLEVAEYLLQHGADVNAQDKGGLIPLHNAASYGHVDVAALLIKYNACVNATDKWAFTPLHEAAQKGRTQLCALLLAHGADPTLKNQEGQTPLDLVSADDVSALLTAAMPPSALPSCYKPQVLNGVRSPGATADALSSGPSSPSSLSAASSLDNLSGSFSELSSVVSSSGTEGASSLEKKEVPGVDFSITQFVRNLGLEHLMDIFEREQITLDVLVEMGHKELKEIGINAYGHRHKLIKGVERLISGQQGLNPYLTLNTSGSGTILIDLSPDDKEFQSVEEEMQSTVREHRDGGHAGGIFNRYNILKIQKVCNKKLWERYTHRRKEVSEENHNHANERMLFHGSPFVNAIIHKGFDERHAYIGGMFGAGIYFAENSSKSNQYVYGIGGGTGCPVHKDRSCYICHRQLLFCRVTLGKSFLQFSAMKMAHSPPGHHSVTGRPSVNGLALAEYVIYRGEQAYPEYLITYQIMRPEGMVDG
T1 sequence (O95271 whole entry): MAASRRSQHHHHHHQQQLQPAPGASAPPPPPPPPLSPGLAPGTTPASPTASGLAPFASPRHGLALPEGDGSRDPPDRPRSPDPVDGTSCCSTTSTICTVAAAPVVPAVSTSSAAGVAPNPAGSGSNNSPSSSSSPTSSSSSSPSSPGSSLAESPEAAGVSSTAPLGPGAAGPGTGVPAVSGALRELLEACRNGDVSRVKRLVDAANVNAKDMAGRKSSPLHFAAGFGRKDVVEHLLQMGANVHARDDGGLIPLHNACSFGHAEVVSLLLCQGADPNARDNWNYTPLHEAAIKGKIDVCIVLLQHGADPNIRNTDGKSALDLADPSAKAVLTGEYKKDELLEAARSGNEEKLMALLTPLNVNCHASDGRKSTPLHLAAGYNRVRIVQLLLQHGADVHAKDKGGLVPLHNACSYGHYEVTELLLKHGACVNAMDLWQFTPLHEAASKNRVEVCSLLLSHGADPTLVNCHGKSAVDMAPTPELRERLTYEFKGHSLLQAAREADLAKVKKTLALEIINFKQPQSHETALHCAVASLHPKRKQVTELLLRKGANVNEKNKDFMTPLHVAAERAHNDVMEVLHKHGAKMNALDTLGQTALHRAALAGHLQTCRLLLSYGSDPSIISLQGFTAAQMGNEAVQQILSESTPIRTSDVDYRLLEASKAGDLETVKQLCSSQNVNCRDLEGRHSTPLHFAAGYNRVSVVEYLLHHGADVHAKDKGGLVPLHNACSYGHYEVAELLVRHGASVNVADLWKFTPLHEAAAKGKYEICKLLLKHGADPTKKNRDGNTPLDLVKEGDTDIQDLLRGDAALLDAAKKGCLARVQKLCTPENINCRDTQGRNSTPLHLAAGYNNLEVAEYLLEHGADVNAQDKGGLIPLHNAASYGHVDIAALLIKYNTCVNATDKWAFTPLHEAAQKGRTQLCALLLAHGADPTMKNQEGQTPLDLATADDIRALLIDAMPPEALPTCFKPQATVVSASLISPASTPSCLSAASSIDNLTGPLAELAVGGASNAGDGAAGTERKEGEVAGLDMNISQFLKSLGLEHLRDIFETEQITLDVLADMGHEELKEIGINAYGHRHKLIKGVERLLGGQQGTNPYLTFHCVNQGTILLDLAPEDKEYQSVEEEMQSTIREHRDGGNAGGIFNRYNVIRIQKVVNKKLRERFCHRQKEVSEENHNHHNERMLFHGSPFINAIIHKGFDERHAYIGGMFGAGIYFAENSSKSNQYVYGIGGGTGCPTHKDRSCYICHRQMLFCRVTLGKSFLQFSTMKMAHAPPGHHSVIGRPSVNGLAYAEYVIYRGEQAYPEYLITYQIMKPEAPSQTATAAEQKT
Description: Inhibition of TNKS/TNKS2 (unknown origin) expressed in human DLD1 cells assessed as reduction in Wnt-signaling measured after 24 hrs by TCF-luciferase reporter gene assay

[2] = target: Beta-2 adrenergic receptor (Homo sapiens) (UniProt P07550); assay: Displacement of [3H]CGP-12177 from full-length recombinant human beta2 receptor expressed in CHO cells co-expressing NBR1 at 10 uM measured after 120 mins by scintillation counting method relative to control; format: cell-based
Sequence of Beta-2 adrenergic receptor (Homo sapiens) (P07550 whole entry, looked up): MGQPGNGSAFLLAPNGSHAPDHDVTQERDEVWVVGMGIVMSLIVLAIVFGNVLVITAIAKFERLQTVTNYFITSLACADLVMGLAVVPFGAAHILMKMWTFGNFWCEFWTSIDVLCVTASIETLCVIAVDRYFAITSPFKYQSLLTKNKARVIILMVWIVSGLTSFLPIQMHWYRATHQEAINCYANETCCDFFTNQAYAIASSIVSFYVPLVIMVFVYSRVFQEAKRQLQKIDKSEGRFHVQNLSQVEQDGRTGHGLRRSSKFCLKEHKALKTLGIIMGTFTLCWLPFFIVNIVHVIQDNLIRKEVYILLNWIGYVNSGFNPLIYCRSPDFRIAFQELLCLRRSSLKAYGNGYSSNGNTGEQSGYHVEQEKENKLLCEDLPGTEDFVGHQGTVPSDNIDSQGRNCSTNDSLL

[3] = target: Vasopressin V1a receptor (Homo sapiens) (UniProt P37288); assay: Displacement of [125I]Phenylacetyl-D-Tyr(Me)-Phe-Gln-Asn-Arg-Pro-Arg-Tyr-NH2 from full-length recombinant human V1A receptor expressed in HEK293 cells at 10 uM measured after 120 mins by scintillation counting method relative to control; format: cell-based
Sequence of Vasopressin V1a receptor (Homo sapiens) (P37288 whole entry, looked up): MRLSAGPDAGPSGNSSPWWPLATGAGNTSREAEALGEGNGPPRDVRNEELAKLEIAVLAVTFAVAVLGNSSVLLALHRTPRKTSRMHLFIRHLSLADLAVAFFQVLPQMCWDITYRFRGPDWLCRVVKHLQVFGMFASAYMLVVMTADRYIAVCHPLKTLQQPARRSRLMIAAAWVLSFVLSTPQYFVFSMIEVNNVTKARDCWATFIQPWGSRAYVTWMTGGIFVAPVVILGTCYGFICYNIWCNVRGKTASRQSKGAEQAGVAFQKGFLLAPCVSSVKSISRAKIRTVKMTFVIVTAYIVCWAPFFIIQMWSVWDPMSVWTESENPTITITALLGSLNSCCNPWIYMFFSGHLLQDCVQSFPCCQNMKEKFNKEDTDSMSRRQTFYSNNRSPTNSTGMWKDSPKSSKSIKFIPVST

[4] = target: Alpha-2A adrenergic receptor (Homo sapiens) (UniProt P08913); assay: Displacement of [3H]rauwolscine from full-length recombinant human alpha2A receptor expressed in CHOK1 cells at 10 uM measured after 60 mins by scintillation counting method relative to control; format: cell-based
Sequence of Alpha-2A adrenergic receptor (Homo sapiens) (P08913 whole entry): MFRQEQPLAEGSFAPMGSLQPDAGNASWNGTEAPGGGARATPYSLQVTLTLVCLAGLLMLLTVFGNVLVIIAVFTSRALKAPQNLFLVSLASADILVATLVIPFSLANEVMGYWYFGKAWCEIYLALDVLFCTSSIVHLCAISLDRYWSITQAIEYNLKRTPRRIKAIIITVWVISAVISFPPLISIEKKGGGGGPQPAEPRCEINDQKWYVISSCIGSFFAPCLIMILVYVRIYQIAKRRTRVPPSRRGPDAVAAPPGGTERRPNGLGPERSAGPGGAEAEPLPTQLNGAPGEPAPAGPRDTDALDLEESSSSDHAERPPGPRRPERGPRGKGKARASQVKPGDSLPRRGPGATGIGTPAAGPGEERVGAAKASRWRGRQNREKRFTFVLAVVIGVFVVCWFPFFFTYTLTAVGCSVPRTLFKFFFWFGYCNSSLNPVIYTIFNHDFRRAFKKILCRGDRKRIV

[5] = target: D(1A) dopamine receptor (Homo sapiens) (UniProt P21728); assay: Displacement of [3H]SCH-23390 from full-length recombinant human D1 receptor expressed in CHO cells at 10 uM measured after 120 mins by scintillation counting method relative to control; format: cell-based
Sequence of D(1A) dopamine receptor (Homo sapiens) (P21728 whole entry): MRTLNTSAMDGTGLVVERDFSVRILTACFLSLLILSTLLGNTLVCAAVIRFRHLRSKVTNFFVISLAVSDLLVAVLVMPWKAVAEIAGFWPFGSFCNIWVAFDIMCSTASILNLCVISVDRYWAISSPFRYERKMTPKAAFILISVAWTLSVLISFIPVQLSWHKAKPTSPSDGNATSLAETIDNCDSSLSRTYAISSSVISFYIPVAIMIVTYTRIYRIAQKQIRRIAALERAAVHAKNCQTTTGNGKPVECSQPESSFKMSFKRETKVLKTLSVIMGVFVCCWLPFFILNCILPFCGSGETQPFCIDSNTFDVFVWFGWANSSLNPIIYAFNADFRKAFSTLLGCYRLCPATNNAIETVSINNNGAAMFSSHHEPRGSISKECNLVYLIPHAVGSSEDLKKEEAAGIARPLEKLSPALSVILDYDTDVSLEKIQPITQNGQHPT

[6] = target: Tankyrase 1/2 (Homo sapiens) (UniProt Q9H2K2+O95271); assay: Inhibition of TNKS/TNKS2 in human COLO320DM cells assessed as upregulation of AXIN2 expression at 0.1 uM measured after 16 hrs by Western blot analysis relative to G007-LK; format: cell-based

| IC50 [1] | Structure (SMILES) | inhibition [2] | inhibition [3] | inhibition [4] | inhibition [5] | fold change (FC) [6] |
| --- | --- | --- | --- | --- | --- | --- |
| 233 nM | COc1ccccc1N1CCN(c2nc3c(c(=O)[nH]2)CCCC3)CC1 |  |  |  |  |  |
|  | O=c1[nH]c(N2CCC3(CC2)CN(CCO)c2cc(F)cc(F)c23)nc2c1CCCC2 | > 20% | > 20% | > 20% | > 20% | 4.42 |
